This test deals with human LDL. Nature of the test: Lipid peroxide-suppressing action: CuSO4-induced LDL oxidation, TBARS assay (Example 1). To be noted: 0.2 mg/mL LDL + 5 μM CuSO4, 37° C., 3 hours, mean, n=2. The class given is biochemical. Here is the method: As an action of capturing free group (free radical-scavenging action), the effect of N-β-alanyl-5-S-glutathionyl-3,4-dihydroxyphenylalanine (5-S-GAD) on LDL oxidation was examined. As controls, dopamine and Carnosine (under trade name; N-acetylcarnosine as the ingredient name) used as eye drops for cataract were used. LDL was prepared by a fractionation and centrifugation method. A fraction at a specific gravity of 1.019 to 1.063 g/mL in serum was defined as human LDL. 5 μM CuSO4, 5-S-GAD (3 to 100 μM) and N-acetyl-carnosine (100 μM to 10 mM) or L-carnosine (10 μM to 10 mM) were added to 0.2 mg/mL LDL, for incubation at 37° C. for 3 hours. After termination of the incubation, TBARS (a substance reactive with thiobarbituric acid) was assayed. Although the TBA reaction is a non-specific reaction, the reaction is used for a method of assaying various lipid peroxide products including malone dialdehyde. An experiment of peroxidation with copper sulfate was done twice (N=2). An aqueous solution containing 3.75 mg/mL thiobarbituric acid (TBA), 150 mg/mL trichloroacetic acid (TCA) and 0.25 N hydrochloric acid (HCl) was prepared as the TBA reagent, while tetramethoxypropane was used to prepare standard solutions (2, 5, 10, 20, 40 μM). 100 μL each of an LDL sample or a standard solution was added together with 200 μL of the TBA reagent into an Eppendorf tube (1.5 mL), which was then sealed with a cap for thorough mixing. After heating at 95° C. for 15 minutes, the resulting mixture was cooled in water and centrifuged at 3000 rpm for 5 minutes. The supernatant was assayed of the absorbance (535 nm). Based on the absorbance of the standard solutions, a standard curve was prepared. Based on the standard curve, the amount of TBARS in the LDL sample was calculated (in nmol/mg LDL protein) (mean, n=2, see Table 1 and FIG. 1).

This is an account of results in US8304452B2, “Radical scavenger and active oxygen eliminating agent” (InBiotex Inc., priority 2005, dated 2012).

SMILES strings stand for the structures.

Turning to `NCCc1ccc(O)c(O)c1` [dopamine, reference compound], the “Amount of TBARS” value was 58.853 nmol/mg LDL protein (10 μM added), 4.454 nmol/mg LDL protein (30 μM added) and 4.208 nmol/mg LDL protein (100 μM added).
